Measured values from US10925856B2, “Methods and compositions involving bucindolol for the treatment of atrial fibrillation” (priority 2018, dated 2021).
Read-outs that look alike come from different tables or passages of the source.

[1] = CYP2D6 Extensive/Ultra Metabolizer
[2] = Drug Titration Period (first 42 days)
[3] = treatment-emergent AE, total follow-up

Compound: CC(C)(Cc1c[nH]c2ccccc12)NCC(O)COc1ccccc1C#N (stereo not shown) [bucindolol, 2-(3-(1-(1H-indol-3-yl)-2-methylpropan-2-ylamino)-2-hydroxypropoxy)benzonitrile]
- HEADACHE, % of patients [1]: (4.8%)
- HEADACHE, number of patients [1]: 5
- HYPOTENSION, % of patients [1]: (9.5%)
- HYPOTENSION, number of patients [1]: 10
- IMMUNE SYSTEM DISORDERS, % of patients [1]: (1.0%)
- IMMUNE SYSTEM DISORDERS, number of patients [1]: 1
- INFECTIONS AND INFESTATIONS, % of patients [1]: (28.6%)
- INFECTIONS AND INFESTATIONS, number of patients [1]: 30
- INFLUENZA, % of patients [1]: (2.9%)
- INFLUENZA, number of patients [1]: 3
- HEADACHE, % of patients (CYP2D6 Poor Metabolizer): (0.0%)
- HEADACHE, number of patients (CYP2D6 Poor Metabolizer): 0
- INFECTIONS AND INFESTATIONS, % of patients (CYP2D6 Poor Metabolizer): (33.3%)
- INFECTIONS AND INFESTATIONS, number of patients (CYP2D6 Poor Metabolizer): 4
- INFLUENZA, % of patients (CYP2D6 Poor Metabolizer): (8.3%)
- INFLUENZA, number of patients (CYP2D6 Poor Metabolizer): 1
- UPPER RESPIRATORY TRACT INFECTION, % of patients (CYP2D6 Poor Metabolizer): (8.3%)
- UPPER RESPIRATORY TRACT INFECTION, number of patients (CYP2D6 Poor Metabolizer): 1
- AC mortality or CV hosp or treatment disc. due to AE, patients N (%) [2]: 5 (4%)
- All-cause mortality, patients N (%) [2]: 0 (0%)
- AEs leading to study withdrawal (excluding death) (GENETIC-AF, all randomized patients): 1.5%
- Adverse event leading to death, patients N (%) (Total Study On-Drug Period): 2.3%
- Adverse events leading to study withdrawal (excluding death), patients N (%) (Total Study On-Drug Period): 2 (1.5%)
- Adverse event leading to death, patients N (%) (Total Study On-Drug Period, listed as Bucindolol): 3 (2.3%)
- AE SOC frequency: Cardiac Disorders (human, in vivo): 25.4%
- AE SOC frequency: Eye Disorders (human, in vivo): 6.0%
- AE SOC frequency: Gastrointestinal Disorders (human, in vivo): 20.9%
- AE SOC frequency: Hepatobiliary Disorders (human, in vivo): 3.7%
- AE SOC frequency: Infections and Infestations (human, in vivo): 28.4%
- AE SOC frequency: Investigators (human, in vivo): 12.7%
- AE SOC frequency: Metabolism and Nutrition Disorders (human, in vivo): 14.2%
- AE SOC frequency: Musculoskeletal and Connective Tissue Disorders (human, in vivo): 25.4%
- AE SOC frequency: Neoplasms Benign Malignant and Unspecified (human, in vivo): 2.2%
- AE SOC frequency: Renal and Urinary Disorders (human, in vivo): 10.4%
- AE SOC frequency: Respiratory, Thoracic and Mediastinal Disorders (human, in vivo): 15.7%
- AE frequency: arthralgia (human, in vivo): 5.2%
- AE frequency: cardiac failure (human, in vivo): 5.2%
- AE frequency: chronic kidney disease (human, in vivo): 3.0%
- AE frequency: constipation (human, in vivo): 6.0%
- AE frequency: epistaxis (human, in vivo): 3.0%
- AE frequency: hematuria (human, in vivo): 3.0%
- AE frequency: hypomagnesaemia (human, in vivo): 3.0%
- AE frequency: hypotension (human, in vivo): 9.7%
- AE frequency: pneumonia (human, in vivo): 3.0%
- AE frequency: upper respiratory tract infection (human, in vivo): 6.0%
- AE of symptomatic bradycardia or bradycardia leading to dose reduction or discontinuation of study drug, patients N (%) (human, in vivo): 4 (3.0%)
- AEs leading to permanent study drug discontinuation (human, in vivo): 8.2%
- AEs: Bradycardia (human, in vivo): 3.7%
- AEs: Stroke (99% on OACs) (human, in vivo): 0.0%
- Adverse event possible/probably related to study drug, patients N (%) (human, in vivo): 32 (23.9%)
- Adverse events leading to permanent study drug discontinuation, patients N (%) (human, in vivo): 11 (8.2%)
- Adverse events related to neoplasm, patients N (%) (human, in vivo): 3 (2.2%)
- Any bradycardia event, % of patients (human, in vivo): (4%)
- Any bradycardia event, number of patients (human, in vivo): 5
- Any bradycardia, % of patients (human, in vivo): (4%)
- Any bradycardia, number of patients (human, in vivo): 5
- Any serious adverse event, % of patients (human, in vivo): (25%)
- Any serious adverse event, number of patients (human, in vivo): 33
- Asymptomatic bradycardia event, % of patients (human, in vivo): (0%)
- Asymptomatic bradycardia event, number of patients (human, in vivo): 0
- Asymptomatic bradycardia, % of patients (human, in vivo): (0%)
- Asymptomatic bradycardia, number of patients (human, in vivo): 0
- Bradycardia event leading to study drug discontinuation, % of patients (human, in vivo): (1%)
- Bradycardia event leading to study drug discontinuation, number of patients (human, in vivo): 1
- Bradycardia event leading to study drug dose interruption, % of patients (human, in vivo): (0%)
- Bradycardia event leading to study drug dose interruption, number of patients (human, in vivo): 0
- Bradycardia event leading to study drug dose reduction, % of patients (human, in vivo): (2%)
- Bradycardia event leading to study drug dose reduction, number of patients (human, in vivo): 3
- CAD, % of patients (human, in vivo): (6%)
- CAD, number of patients (human, in vivo): 8
- Cardiac AE rate (heart failure or bradycardia events) (human, in vivo): 25%
- Cardiovascular serious adverse event, % of patients (human, in vivo): (9%)
- Cardiovascular serious adverse event, number of patients (human, in vivo): 12
- Catheterization, % of patients (human, in vivo): (4%)
- Catheterization, number of patients (human, in vivo): 5
- Heart block (Mobitz I/II, 2:1, or 3rd degree), % of patients (human, in vivo): (0%)
- Heart block (Mobitz I/II, 2:1, or 3rd degree), number of patients (human, in vivo): 0
- ICD Implantation, % of patients (human, in vivo): (4%)
- ICD Implantation, number of patients (human, in vivo): 5
- Incidence of Cr > 3.0, % of patients (human, in vivo): (1%)
- Incidence of Cr > 3.0, number of patients (human, in vivo): 1
- Incidence of bilirubin > 2.0, % of patients (human, in vivo): (1%)
- Incidence of bilirubin > 2.0, number of patients (human, in vivo): 1
- Non-CNS Embolism, % of patients (human, in vivo): (0%)
- Non-CNS Embolism, number of patients (human, in vivo): 0
- Pacemaker Implantation, % of patients (human, in vivo): (1%)
- Pacemaker Implantation, number of patients (human, in vivo): 1
- REPRODUCTIVE SYSTEM AND BREAST DISORDERS, % of patients (human, in vivo): (0.0%)
- REPRODUCTIVE SYSTEM AND BREAST DISORDERS, number of patients (human, in vivo): 0
- SAE SOC frequency: Infections and Infestations (human, in vivo): 4.5%
- SAE SOC frequency: Renal and Urinary Disorders (human, in vivo): 3.0%
- SAE SOC frequency: Respiratory, Thoracic and Mediastinal Disorders (human, in vivo): 5.2%
- SAE frequency: Cardiac Failure (human, in vivo): 3.0%
- SAE frequency: Cardiac Failure Congestive (human, in vivo): 2.2%
- SAEs: Any cardiovascular event (human, in vivo): 9.0%
- SINUS BRADYCARDIA, % of patients (human, in vivo): (0.0%)
- SINUS BRADYCARDIA, number of patients (human, in vivo): 0
- Stroke, % of patients (human, in vivo): (0%)
- Stroke, number of patients (human, in vivo): 0
- Symptomatic bradycardia event, % of patients (human, in vivo): (4%)
- Symptomatic bradycardia event, number of patients (human, in vivo): 5
- Symptomatic bradycardia, % of patients (human, in vivo): (4%)
- Symptomatic bradycardia, number of patients (human, in vivo): 5
- TIA, % of patients (human, in vivo): (0%)
- TIA, number of patients (human, in vivo): 0
- UPPER RESPIRATORY TRACT INFECTION, % of patients (human, in vivo): (5.7%)
- UPPER RESPIRATORY TRACT INFECTION, number of patients (human, in vivo): 6
- All-cause hospitalization, patients N (%) (human, in vivo, 42 days): 7 (5%)
- Any serious adverse event, patients N (%) (human, in vivo, 42 days): 8 (6%)
- Asymptomatic bradycardia, patients N (%) (human, in vivo, 42 days): 0 (0%)
- Cardiovascular hospitalization, patients N (%) (human, in vivo, 42 days): 5 (4%)
- Heart failure hospitalization, patients N (%) (human, in vivo, 42 days): 1 (1%)
- Symptomatic bradycardia, patients N (%) (human, in vivo, 42 days): 2 (1%)
- Treatment-related cardiovascular serious adverse event, patients N (%) (human, in vivo, 42 days): 0 (0%)
- Treatment-related serious adverse event, patients N (%) (human, in vivo, 42 days): 1 (1%)
- Ablation, % of patients (in vivo): (16%)
- Ablation, number of patients (in vivo): 21
- Additional ECV After Successful SR, % of patients (in vivo): (28%)
- Additional ECV After Successful SR, number of patients (in vivo): 37
- Anti-Arrhythmic Therapy, % of patients (in vivo): (34%)
- Anti-Arrhythmic Therapy, number of patients (in vivo): 46
- Appropriate Firing of on ICD, % of patients (in vivo): (0%)
- Appropriate Firing of on ICD, number of patients (in vivo): 0
- Bradycardia AEs (in vivo): none
- Rate Control Therapy, % of patients (in vivo): (15%)
- Rate Control Therapy, number of patients (in vivo): 20
- HEADACHE, % of patients [3]: (4.5%)
- HEADACHE, number of patients [3]: 6
- INFECTIONS AND INFESTATIONS, % of patients [3]: (26.9%)
- INFECTIONS AND INFESTATIONS, number of patients [3]: 36
- INFLUENZA, % of patients [3]: (3.0%)
- INFLUENZA, number of patients [3]: 4
- UPPER RESPIRATORY TRACT INFECTION, % of patients [3]: (5.2%)
- UPPER RESPIRATORY TRACT INFECTION, number of patients [3]: 7
- INFECTIONS AND INFESTATIONS, % of patients (treatment-emergent serious AE): (4.5%)
- INFECTIONS AND INFESTATIONS, number of patients (treatment-emergent serious AE): 6
